The source made the active and inactive calls. The calls are words filed in the database; no cut-off is given here.
Tests used:
[1] = Toxicity in mouse assessed as cell apoptosis in kidney at 100 to 200 mg/kg measured after 7 days by hematoxylin and eosin staining based analysis; assay type: organism-based; details: in vivo, 168 h, dose 100-200 mg/kg, time 7 day
[2] = Toxicity in mouse assessed as frequency of rearing activity at 200 mg/kg measured over 5 mins by open field arena test (reference value: 18.14 +/- 2.6 sec); assay type: organism-based; details: in vivo
[3] = Toxicity in mouse assessed as impairment of short-term memory at 200 mg/kg by novel object recognition test (reference value: 11.87 +/- 3.82 ); assay type: organism-based; details: in vivo
[4] = Drug metabolism in mouse liver S9 fraction assessed as mono-hydroxylation mediated metabolite formation at 2 uM measured for 90 mins by LC-MS/MS analysis; assay type: ADME, subcellular; details: s9, 1.5 h
Falcipain 2 [5] = target: T1, Falcipain 2 (Plasmodium falciparum, UniProt Q9N6S8); assay: Binding affinity to N-terminal 6His-tagged recombinant Plasmodium falciparum FP2 expressed in Escherichia coli M15 assessed as dissociation constant by surface plasmon resonance analysis
T1 sequence (Q9N6S8 whole entry): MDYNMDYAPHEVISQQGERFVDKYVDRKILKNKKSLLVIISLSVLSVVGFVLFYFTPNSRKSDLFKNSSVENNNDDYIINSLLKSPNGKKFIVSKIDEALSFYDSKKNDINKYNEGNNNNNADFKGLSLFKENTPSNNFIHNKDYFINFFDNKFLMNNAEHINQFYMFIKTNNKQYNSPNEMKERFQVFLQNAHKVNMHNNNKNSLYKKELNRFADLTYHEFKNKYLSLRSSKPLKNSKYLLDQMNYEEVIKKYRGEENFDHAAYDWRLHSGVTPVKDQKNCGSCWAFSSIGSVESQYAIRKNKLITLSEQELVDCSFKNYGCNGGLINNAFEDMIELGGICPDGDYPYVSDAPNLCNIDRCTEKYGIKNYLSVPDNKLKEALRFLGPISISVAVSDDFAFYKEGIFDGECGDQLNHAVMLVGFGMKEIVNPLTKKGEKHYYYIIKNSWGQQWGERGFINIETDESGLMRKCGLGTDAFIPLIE

Falcipain 2 [6] = target: T1, Falcipain 2; assay: Binding affinity to N-terminal 6His-tagged recombinant Plasmodium falciparum FP2 expressed in Escherichia coli M15 assessed as dissociation constant incubated for 15 mins in presence of lysine reactive dye by microscale thermophoretic analysis
Falcipain-3 [7] = target: T2, Falcipain-3 (Plasmodium falciparum 3D7, UniProt Q8IIL0); assay: Inhibition of N-terminal 6His-tagged recombinant Plasmodium falciparum FP3 expressed in Escherichia coli M15 using Z-Phe-Arg-AMC as substrate measured after 30 mins by microplate reader analysis
T2 sequence (Q8IIL0 whole entry): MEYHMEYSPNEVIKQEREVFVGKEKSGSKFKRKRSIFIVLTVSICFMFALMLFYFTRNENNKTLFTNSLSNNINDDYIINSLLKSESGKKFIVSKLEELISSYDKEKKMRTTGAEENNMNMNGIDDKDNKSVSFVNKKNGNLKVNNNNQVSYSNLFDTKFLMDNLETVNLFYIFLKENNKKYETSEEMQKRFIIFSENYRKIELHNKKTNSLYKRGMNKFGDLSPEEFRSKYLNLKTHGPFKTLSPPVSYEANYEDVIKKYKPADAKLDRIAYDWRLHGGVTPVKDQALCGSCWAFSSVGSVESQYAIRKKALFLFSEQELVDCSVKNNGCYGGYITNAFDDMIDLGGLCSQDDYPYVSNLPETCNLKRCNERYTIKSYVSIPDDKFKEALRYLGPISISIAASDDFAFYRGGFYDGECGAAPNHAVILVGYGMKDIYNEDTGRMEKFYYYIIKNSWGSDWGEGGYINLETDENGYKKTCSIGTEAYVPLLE

Plasmodium falciparum [8] = assay: Antimalarial activity against schizont stage chloroquine-sensitive Plasmodium falciparum 3D7 assessed as growth inhibition incubated with compound for 6 hrs and measured 72 hrs post invasion by SYBR Green dye based analysis; assay type: functional, organism-based
Plasmodium berghei [9] = assay: Antimalarial activity against Plasmodium berghei ANKA infected in female BALB/c mouse assessed as reduction in parasitemia at 50 mg/kg, ip measured on day 4 post infection by Giemsa staining based light microscopy (Rvb >17 %); assay type: functional; design: scale not given: the % may be the effect or the level left
Falcipain-3 [10] = target: T2, Falcipain-3; assay: Binding affinity to N-terminal 6His-tagged recombinant Plasmodium falciparum FP3 expressed in Escherichia coli M15 assessed as dissociation constant by surface plasmon resonance analysis
[11] = Toxicity in mouse assessed as impairment of short-term memory at 100 mg/kg by novel object recognition test (reference value: 11.87 +/- 3.82 ); assay type: organism-based; details: in vivo
[12] = Drug metabolism in human liver S9 fraction assessed as mono-hydroxylation mediated metabolite formation at 2 uM measured for 90 mins by LC-MS/MS analysis; assay type: ADME, subcellular; details: s9, 1.5 h
[13] = Toxicity in mouse assessed as cell necrosis in liver at 100 to 200 mg/kg measured after 7 days by hematoxylin and eosin staining based analysis; assay type: organism-based; details: in vivo, 168 h, dose 100-200 mg/kg, time 7 day
[14] = Toxicity in mouse assessed as cell death in liver at 100 to 200 mg/kg measured after 7 days by hematoxylin and eosin staining based analysis; assay type: organism-based; details: in vivo, 168 h, dose 100-200 mg/kg, time 7 day
Plasmodium berghei [15] = assay: Antimalarial activity against Plasmodium berghei ANKA infected in female BALB/c mouse assessed as survival at 50 to 100 mg/kg, ip; assay type: functional; details: dose 50-100 mg/kg
[16] = target: T3, Falcipain-3 (Plasmodium falciparum 3D7) (UniProt Q8IIL0); assay: Binding affinity to N-terminal 6His-tagged recombinant Plasmodium falciparum FP3 expressed in Escherichia coli M15 assessed as dissociation rate constant (Koff) by surface plasmon resonance analysis
T3 sequence (whole entry): T2 sequence (Q8IIL0 whole entry)

Plasmodium falciparum [17] = assay: Antimalarial activity against synchronized ring stage Plasmodium falciparum assessed as accumulation of free heme at 1 to 4 uM incubated for 20 hrs by absorbance based analysis; assay type: functional, organism-based; details: dose 1-4 µM
Plasmodium falciparum [18] = assay: Antimalarial activity against synchronized ring stage Plasmodium falciparum assessed as reduction in hemozoin level at 1 to 4 uM incubated for 20 hrs by absorbance based analysis; assay type: functional, organism-based; details: dose 1-4 µM
[19] = Metabolic stability in mouse liver S9 fraction assessed as intrinsic clearance at 2 uM measured for 90 mins by LC-MS/MS analysis; assay type: ADME, subcellular; details: read-out: CLH
Plasmodium falciparum [20] = assay: Antimalarial activity against schizont stage Plasmodium falciparum infected in erythrocytes assessed as decrease in falcipain-mediated substrate hydrolysis by measuring reduction in fluorescence intensity of the fluorogenic peptide at 5 uM pre-incubated for 1 hr followed by Z-Phe-Arg-AMC substrate addition and measured after 5 to 10 mins by confocal microscopic analysis; assay type: functional, organism-based; details: Erythrocyte, time 65-70 min
[21] = Toxicity in mouse assessed as total distance travelled at 100 mg/kg measured over 5 mins by open field arena test (reference value: 12.45 +/- 1.48 meter); assay type: organism-based; details: in vivo
[22] = Toxicity in mouse assessed as cell death in kidney at 100 to 200 mg/kg measured after 7 days by hematoxylin and eosin staining based analysis; assay type: organism-based; details: in vivo, 168 h, dose 100-200 mg/kg, time 7 day
Plasmodium falciparum [23] = assay: Antimalarial activity against chloroquine-sensitive Plasmodium falciparum NF54 assessed as inhibition of parasite growth by lactate dehydrogenase assay; assay type: functional, organism-based
Plasmodium berghei [24] = assay: Antimalarial activity against Plasmodium berghei ANKA infected in female BALB/c mouse assessed as reduction in parasitemia at 100 mg/kg, ip measured on day 4 post infection by Giemsa staining based light microscopy (Rvb >17 %); assay type: functional; design: scale not given: the % may be the effect or the level left
[25] = Toxicity in mouse assessed as cell necrosis in spleen at 100 to 200 mg/kg measured after 7 days by hematoxylin and eosin staining based analysis; assay type: organism-based; details: in vivo, 168 h, dose 100-200 mg/kg, time 7 day

O=C(Cn1cc(CN2CCN(c3ccnc4cc(Cl)ccc34)CC2)nn1)Nc1cccc([N+](=O)[O-])c1
Activity [1]: Non-Toxic | Activity [2]: 14.32 s | Activity [3]: 1.889 | Drug metabolism [4]: Metabolite_Detected | Kd (Falcipain 2 [5]): 14 µM | Kd (Falcipain 2 [6]): 2.99 µM | IC50 (Falcipain-3 [7]): 31.8 µM | IC50 (Plasmodium falciparum [8]): 3.09 µM | Activity (Plasmodium berghei [9]): >7% | Kd (Falcipain-3 [10]): 74 µM | Activity [11]: 3.6 | Drug metabolism [12]: Metabolite_Detected | Activity [13]: Non-Toxic | Activity [14]: Non-Toxic | Survival (Plasmodium berghei [15]): <=30 day | K [16]: 0.305 s⁻¹ | Activity (Plasmodium falciparum [17]): Active | Activity (Plasmodium falciparum [18]): Active | microsomal CLint at 2 µM [19]: 7.78 µL/min/mg | Activity (Plasmodium falciparum [20]): Active | Activity [21]: 11.53 m | Activity [22]: Non-Toxic | IC50 (Plasmodium falciparum [23]): 0.92 µM | Activity (Plasmodium berghei [24]): 100% | Activity [25]: Non-Toxic
